Laboratory results: ChEMBL document CHEMBL5303573, “Mapping human microbiome drug metabolism by gut bacteria and their genes” (Nature, 2019)

Legend:
[1] = The drug is tested on Bacteroides caccae strain: ATCC43185 for biotransformation. The drug concentrations were measured before and after a 12-h incubation by liquid-chromatography-coupled mass spectrometry (LC–MS); conditions: 2 µM
[2] = The drug is tested on Blautia luti strain: DSM14534 for biotransformation. The drug concentrations were measured before and after a 12-h incubation by liquid-chromatography-coupled mass spectrometry (LC–MS); format: ADME; parameters: dose 2 uM, timepoint 0 vs 12 hours; conditions: 2 µM
[3] = The drug is tested on Bifidobacterium breve strain: DSM20213 for biotransformation. The drug concentrations were measured before and after a 12-h incubation by liquid-chromatography-coupled mass spectrometry (LC–MS); conditions: 2 µM
[4] = The drug is tested on Bifidobacterium ruminantium strain: fecal isolate for biotransformation. The drug concentrations were measured before and after a 12-h incubation by liquid-chromatography-coupled mass spectrometry (LC–MS); conditions: 2 µM
[5] = parabacteroides johnsonii, 12 h, 2 µM
Description: The drug is tested on Parabacteroides johnsonii strain: DSM18315 for biotransformation. The drug concentrations were measured before and after a 12-h incubation by liquid-chromatography-coupled mass spectrometry (LC–MS)

[6] = bacteroides stercoris, 12 h, 2 µM
Description: The drug is tested on Bacteroides stercoris strain: ATCC43183 for biotransformation. The drug concentrations were measured before and after a 12-h incubation by liquid-chromatography-coupled mass spectrometry (LC–MS)

[7] = bacteroides eggerthii, 12 h, 2 µM
Description: The drug is tested on Bacteroides eggerthii strain: DSM20697 for biotransformation. The drug concentrations were measured before and after a 12-h incubation by liquid-chromatography-coupled mass spectrometry (LC–MS)

[8] = The drug is tested on Clostridium symbiosum strain: ATCC14940 for biotransformation. The drug concentrations were measured before and after a 12-h incubation by liquid-chromatography-coupled mass spectrometry (LC–MS); conditions: 2 µM
[9] = akkermansia muciniphila, 12 h, 2 µM
Description: The drug is tested on Akkermansia muciniphila strain: ATCC BAA-835 for biotransformation. The drug concentrations were measured before and after a 12-h incubation by liquid-chromatography-coupled mass spectrometry (LC–MS)

[10] = The drug is tested on Bacteroides uniformis strain: ATCC8492 for biotransformation. The drug concentrations were measured before and after a 12-h incubation by liquid-chromatography-coupled mass spectrometry (LC–MS); conditions: 2 µM
[11] = limosilactobacillus reuteri cf48-3a, 12 h, 2 µM
Description: The drug is tested on Lactobacillus reuteri CF48-3A strain: BEI HM-102 for biotransformation. The drug concentrations were measured before and after a 12-h incubation by liquid-chromatography-coupled mass spectrometry (LC–MS)

[12] = The drug is tested on Clostridium sporogenes strain: ATCC15579 for biotransformation. The drug concentrations were measured before and after a 12-h incubation by liquid-chromatography-coupled mass spectrometry (LC–MS); conditions: 2 µM
[13] = The drug is tested on Clostridium ramosum strain: DSM1402 for biotransformation. The drug concentrations were measured before and after a 12-h incubation by liquid-chromatography-coupled mass spectrometry (LC–MS); conditions: thomasclavelia ramosa, 2 µM
[14] = The drug is tested on Parabacteroides merdae strain: ATCC43184 for biotransformation. The drug concentrations were measured before and after a 12-h incubation by liquid-chromatography-coupled mass spectrometry (LC–MS); conditions: 2 µM
[15] = The drug is tested on Providencia rettgeri strain: DSM1131 for biotransformation. The drug concentrations were measured before and after a 12-h incubation by liquid-chromatography-coupled mass spectrometry (LC–MS); format: ADME; parameters: dose 2 uM, timepoint 0 vs 12 hours; conditions: 2 µM
[16] = The drug is tested on Bacteroides sp. WH2 strain: WH2 for biotransformation. The drug concentrations were measured before and after a 12-h incubation by liquid-chromatography-coupled mass spectrometry (LC–MS); conditions: bacteroides sp. wh2, 12 h, 2 µM
[17] = bacteroides fragilis, 12 h, 2 µM
Description: The drug is tested on Bacteroides fragilis strain: NCTC 9343 for biotransformation. The drug concentrations were measured before and after a 12-h incubation by liquid-chromatography-coupled mass spectrometry (LC–MS)

[18] = bacteroides fragilis, 12 h, 2 µM; remark: listed apart in the source
Description: The drug is tested on Bacteroides fragilis strain: DS-208 for biotransformation. The drug concentrations were measured before and after a 12-h incubation by liquid-chromatography-coupled mass spectrometry (LC–MS)

[19] = The drug is tested on Bacteroides vulgatus strain: ATCC8482 for biotransformation. The drug concentrations were measured before and after a 12-h incubation by liquid-chromatography-coupled mass spectrometry (LC–MS); conditions: phocaeicola vulgatus, 2 µM
[20] = The drug is tested on Edwardsiella tarda strain: ATCC23685 for biotransformation. The drug concentrations were measured before and after a 12-h incubation by liquid-chromatography-coupled mass spectrometry (LC–MS); conditions: 2 µM

Row | SMILES | Bacterial Biotransformation [1] | Bacterial Biotransformation [2] | Bacterial Biotransformation [3] | Bacterial Biotransformation [4] | Bacterial Biotransformation [5] | Bacterial Biotransformation [6] | Bacterial Biotransformation [7] | Bacterial Biotransformation [8] | Bacterial Biotransformation [9] | Bacterial Biotransformation [10] | Bacterial Biotransformation [11] | Bacterial Biotransformation [12] | Bacterial Biotransformation [13] | Bacterial Biotransformation [14] | Bacterial Biotransformation [15] | Bacterial Biotransformation [16] | Bacterial Biotransformation [17] | Bacterial Biotransformation [18] | Bacterial Biotransformation [19] | Bacterial Biotransformation [20]
1 | Cc1nc(Nc2ncc(C(=O)Nc3c(C)cccc3Cl)s2)cc(N2CCN(CCO)CC2)n1.O [DASATINIB] | Compound NOT metabolized | Compound NOT metabolized | Compound NOT metabolized | Compound metabolized | Compound metabolized | Compound metabolized | Compound NOT metabolized | Compound NOT metabolized | Compound metabolized | Compound NOT metabolized | Compound metabolized | Compound NOT metabolized | Compound NOT metabolized | Compound NOT metabolized | Compound NOT metabolized | Compound NOT metabolized | Compound metabolized | Compound metabolized |  | 
2 | CN1CCN(C(=O)O[C@H]2c3nccnc3C(=O)N2c2ccc(Cl)cn2)CC1 [ESZOPICLONE] | Compound NOT metabolized | Compound NOT metabolized | Compound NOT metabolized | Compound NOT metabolized | Compound metabolized | Compound NOT metabolized | Compound NOT metabolized | Compound NOT metabolized |  | Compound NOT metabolized | Compound NOT metabolized | Compound NOT metabolized | Compound NOT metabolized |  | Compound NOT metabolized | Compound NOT metabolized | Compound NOT metabolized |  | Compound metabolized | Compound NOT metabolized
3 | O=C1[C@H](CC[C@H](O)c2ccc(F)cc2)[C@@H](c2ccc(O)cc2)N1c1ccc(F)cc1 [EZETIMIBE] |  | Compound NOT metabolized | Compound NOT metabolized | Compound NOT metabolized | Compound NOT metabolized | Compound NOT metabolized | Compound NOT metabolized | Compound NOT metabolized | Compound NOT metabolized | Compound metabolized | Compound NOT metabolized | Compound metabolized | Compound NOT metabolized | Compound NOT metabolized | Compound NOT metabolized | Compound NOT metabolized | Compound NOT metabolized | Compound NOT metabolized |  | Compound NOT metabolized
4 | CC1Cc2ccccc2N1NC(=O)c1ccc(Cl)c(S(N)(=O)=O)c1 (stereo not given) [INDAPAMIDE] | Compound NOT metabolized | Compound NOT metabolized | Compound NOT metabolized | Compound NOT metabolized | Compound NOT metabolized | Compound NOT metabolized | Compound NOT metabolized |  | Compound NOT metabolized | Compound NOT metabolized |  | Compound NOT metabolized | Compound NOT metabolized | Compound NOT metabolized | Compound NOT metabolized | Compound NOT metabolized | Compound NOT metabolized | Compound NOT metabolized | Compound NOT metabolized | Compound NOT metabolized
5 | CN1CCC(=C2c3ccccc3CC(=O)c3sccc32)CC1.O=C(O)/C=C/C(=O)O [KETOTIFEN FUMARATE] | Compound NOT metabolized | Compound NOT metabolized | Compound NOT metabolized | Compound NOT metabolized | Compound NOT metabolized | Compound NOT metabolized | Compound NOT metabolized | Compound NOT metabolized | Compound NOT metabolized | Compound NOT metabolized | Compound NOT metabolized | Compound NOT metabolized | Compound NOT metabolized | Compound NOT metabolized | Compound NOT metabolized | Compound NOT metabolized | Compound NOT metabolized | Compound NOT metabolized |  | Compound NOT metabolized
6 | CCN(CC)CCNC(=O)c1cc(Cl)c(N)cc1OC [METOCLOPRAMIDE] | Compound NOT metabolized | Compound NOT metabolized | Compound NOT metabolized | Compound NOT metabolized | Compound NOT metabolized | Compound NOT metabolized | Compound NOT metabolized | Compound NOT metabolized |  | Compound NOT metabolized | Compound NOT metabolized | Compound NOT metabolized | Compound NOT metabolized | Compound NOT metabolized | Compound NOT metabolized | Compound NOT metabolized | Compound NOT metabolized | Compound NOT metabolized | Compound NOT metabolized | Compound NOT metabolized
7 | COCCc1ccc(OCC(O)CNC(C)C)cc1.COCCc1ccc(OCC(O)CNC(C)C)cc1.O=C(O)C(O)C(O)C(=O)O (stereo not given) [METOPROLOL TARTRATE] | Compound NOT metabolized | Compound NOT metabolized | Compound NOT metabolized | Compound metabolized | Compound NOT metabolized |  | Compound NOT metabolized | Compound NOT metabolized |  | Compound NOT metabolized | Compound NOT metabolized | Compound NOT metabolized | Compound NOT metabolized | Compound NOT metabolized | Compound NOT metabolized | Compound NOT metabolized | Compound NOT metabolized | Compound NOT metabolized | Compound NOT metabolized | Compound NOT metabolized
8 | C=CCN1CC[C@]23c4c5ccc(O)c4O[C@H]2C(=O)CC[C@@]3(O)[C@H]1C5 [NALOXONE] |  | Compound NOT metabolized | Compound NOT metabolized | Compound NOT metabolized | Compound metabolized |  | Compound metabolized |  | Compound metabolized | Compound metabolized | Compound metabolized | Compound metabolized | Compound NOT metabolized |  | Compound NOT metabolized | Compound NOT metabolized | Compound metabolized | Compound metabolized | Compound metabolized | Compound NOT metabolized
9 | Cc1cc2c(s1)Nc1ccccc1N=C2N1CCN(C)CC1 [OLANZAPINE] | Compound NOT metabolized | Compound NOT metabolized | Compound NOT metabolized | Compound NOT metabolized | Compound NOT metabolized | Compound NOT metabolized | Compound NOT metabolized | Compound NOT metabolized | Compound NOT metabolized |  | Compound NOT metabolized | Compound NOT metabolized | Compound NOT metabolized |  | Compound NOT metabolized |  | Compound NOT metabolized | Compound NOT metabolized | Compound NOT metabolized | Compound NOT metabolized
